Patent US20070015688A1, “Method for screening for inhibitors of alzheimer's disease” (priority 2000, published 2007)

Tested on: low-density lipoprotein (LDL)
Experiment: LDL oxidation (lipid peroxidation) assay of Cu-metallated APP proteins
Assay type: biochemical
Conditions: for % of lipid peroxidation by control: Cu-metallated proteins, 0.5 mg/mL LDL, 24 hr, 37° C., control LDL in PBS alone = 100; for effect on lipid peroxidation (Cu-reducing) activity of the CuBD, in words: mutations incorporated into APP133-189
Description: Mutagenesis experiments were performed to test this. His147 and His151 were mutated to Asn, Tyr168 was mutated to Phe, and Met170 was mutated to Leu. These mutations were incorporated into APP133-189. Recombinant protein was expressed in Pichia pastoris as described above, and purified by standard chromatography methods. The identities of the purified proteins were verified by mass spectrometry. The Cu-reducing activity of the CuBD was tested in a lipid peroxidation assay.
Two different assays of metal mediated lipid peroxidation were utilized. The first assay involved measuring the oxidative activity of metallated proteins. This was determined by mixing dialyzed metallated or native protein at designated concentrations with 0.5 mg/mL low-density lipoprotein (LDL) for 24 hr (37° C.). Lipid peroxidation was measured using a lipid peroxidation assay kit (LPO 486, Oxis International Inc. Portland, Oreg.), as per kit instructions.
The control is LDL (0.5 mg/mL) in PBS buffer alone. […] APP133-189 induced strong lipid peroxidation (3-fold above background).

Substance: APP133-189: truncated version of the CuBD of APP, recombinant protein expressed in Pichia pastoris (CKFLHQERMDVCETHLHWHTVAKETCSEKSTNLHDYGMLLPCGIDKFRGVEFVCCPL; UniProt P05067 133-189, looked up, fragment)
- % of lipid peroxidation by control: 312%
- lipid peroxidation above background (background = APP28-123 negative control): 3 fold

Substance: His147Asn: APP133-189 with His147 mutated to Asn
- % of lipid peroxidation by control: 87%
- effect on lipid peroxidation (Cu-reducing) activity of the CuBD, in words: abolished this activity

Substance: His151Asn: APP133-189 with His151 mutated to Asn
- % of lipid peroxidation by control: 196%
- effect on lipid peroxidation (Cu-reducing) activity of the CuBD, in words: affected the activity, but to a lesser extent

Substance: Met170Leu: APP133-189 with Met170 mutated to Leu
- % of lipid peroxidation by control: 142%
- effect on lipid peroxidation (Cu-reducing) activity of the CuBD, in words: significant effect on the activity

Substance: Tyr168Phe: APP133-189 with Tyr168 mutated to Phe
- % of lipid peroxidation by control: 111%
- effect on lipid peroxidation (Cu-reducing) activity of the CuBD, in words: significant effect on the activity
